Results taken from patent US20140073761A1, “CONJUGATES CONTAINING HYDROPHILIC SPACER LINKERS” (priority 2007, published 2014).
*1 amine or outer side, *2 acyl side, *3 side chain or, on linkers, in order; H or OH if unused. Where a SMILES comes first, the peptide text is derived from it. [ ]: non-standard residue; d: D form. The star is where a group is joined. X1 = CC[C@]1(O)C[C@H]2CN(CCc3c([nH]c4ccccc34)[C@@](C(=O)OC)(c3cc4c(cc3OC)N(C)[C@H]3[C@@](O)(C(=O)NNC(=O)OCCS*)[C@H](O)[C@]5(CC)C=CCN6CC[C@]43[C@@H]65)C2)C1; Nle(3R-OH,4S-OH,5R-OH,6-OH) = N[C@H](C(=O)O)[C@@H](O)[C@H](O)[C@H](O)CO; Pteroyl = Nc1nc2ncc(CNc3ccc(C(=O)*)cc3)nc2c(=O)[nH]1; γGlu = O=C(O)[C@H](CCC(=O)[*:2])N[*:1]

Assays:
[1] = rat, in vivo
Text: Comparison of Bile Clearance (% ID) of unconjugated drug, drug conjugate lacking a hydrophilic spacer linker, and conjugates described herein.

[2] = system: folate receptor-positive KB cells; format: cell-based; settings: excess folic acid
Procedure: Inhibition of Cellular DNA Synthesis. The compounds described herein were evaluated using an in vitro cytotoxicity assay that predicts the ability of the drug to inhibit the growth of folate receptor-positive KB cells. The compounds were comprised of folate linked to a respective chemotherapeutic drug, as prepared according to the protocols described herein. […] The cells were then rinsed once with fresh culture medium and incubated in fresh culture medium for 72 hours at 37° C. Cell viability was assessed using a ^3H-thymidine incorporation assay.
(§1) In Vitro Concentration-Dependent Cytotoxic Activity. Cells were heavily seeded in 24-well Falcon plates and allowed to form nearly confluent monolayers overnight. Thirty minutes prior to the addition of test article, spent medium was aspirated from all wells and replaced with fresh folate-free RPMI (FFRPMI). […] Treated cells were pulsed for 2 h at 37° C., rinsed 4 times with 0.5 mL of media, and then chased in 1 mL of fresh media up to 70 h. Spent media was aspirated from all wells and replaced with fresh media containing 5 μCi/mL ^3H-thymidine. Following a further 2 h 37° C. incubation, cells were washed 3 times with 0.5 mL of PBS and then treated with 0.5 mL of ice-cold 5% trichloroacetic acid per well. After 15 min, the trichloroacetic acid was aspirated and the cell material solubilized by the addition of 0.5 mL of 0.25 N sodium hydroxide for 15 min. Four hundred and fifty μL of each solubilized sample were transferred to scintillation vials containing 3 mL of Ecolume scintillation cocktail and then counted in a liquid scintillation counter. Final tabulated results were expressed as the percentage of ^3H-thymidine incorporation relative to untreated controls.
(§2) As shown in the figures herein, dose-dependent cytotoxicity was measurable, and in most cases, the IC50 values (concentration of drug conjugate required to reduce ^3H-thymidine incorporation into newly synthesized DNA by 50%) were in the low nanomolar range. […] The following table illustrated data for selected compounds against KB cells and against RAW264.7 cells

[3] = FIG. 6B, 7B, 8B; M109 tumors, Balb/c mice; 2 μmol/kg TIW two weeks
Procedure: Toxicity as Measured by Weight Loss. The percentage weight change was determined in mice (5 mice/group) on selected days post-tumor inoculation (PTI), compared to controls, and graphed.

RAW264.7 cells = format: cell-based; settings: for RAW264.7 Cells Competable with xs folate: excess folic acid
Procedure: as §1, §2

With `CC[C@]1(O)C[C@@H]2CN(CCc3c([nH]c4ccccc34)[C@@](C(=O)OC)(c3cc4c(cc3OC)N(C)[C@H]3[C@@](O)(C(=O)NN)[C@H](O)[C@]5(CC)C=CCN6CC[C@]43[C@@H]65)C2)C1` [DAVLBH, deacetylvinblastine monohydrazide, reference compound] the “Bile clearance (% ID)” value [1] was 58.0 % ID.

In the case of `CC[C@]1(O)C[C@H]2CN(CCc3c([nH]c4ccccc34)[C@@](C(=O)OC)(c3cc4c(cc3OC)N(C)[C@H]3[C@@](O)(C(=O)NNC(=O)OCCSSC[C@H](NC(=O)[C@@H](NC(=O)[C@@H](NC(=O)[C@H](CC(=O)O)NC(=O)[C@@H](NC(=O)CC[C@H](NC(=O)c5ccc(NCc6cnc7nc(N)[nH]c(=O)c7n6)cc5)C(=O)O)[C@@H](O)[C@H](O)[C@H](O)CO)[C@@H](O)[C@H](O)[C@H](O)CO)[C@@H](O)[C@H](O)[C@H](O)CO)C(=O)O)[C@H](O)[C@]5(CC)C=CCN6CC[C@]43[C@@H]65)C2)C1` [EC0258, Tris-Saccharo-Asp-Folate Vinblastine Conjugate], the “Bile clearance (% ID)” value [1] is reported as 3.2 % ID and the “KB Cells Competable with xs folate” value [2] is reported as “Yes”.

For `COc1ccc(C[C@H]2NC(=O)/C=C/C[C@@H]([C@H](C)[C@@H](OC(=O)OCCSSC[C@H](NC(=O)[C@@H](NC(=O)[C@H](CC(=O)O)NC(=O)[C@@H](NC(=O)[C@H](CC(=O)O)NC(=O)[C@@H](NC(=O)CC[C@H](NC(=O)c3ccc(NCc4cnc5nc(N)[nH]c(=O)c5n4)cc3)C(=O)O)[C@@H](O)[C@H](O)[C@H](O)CO)[C@@H](O)[C@H](O)[C@H](O)CO)[C@@H](O)[C@H](O)[C@H](O)CO)C(=O)O)[C@@H](Cl)c3ccccc3)OC(=O)[C@H](CC(C)C)OC(=O)C(C)(C)CNC2=O)cc1Cl` [EC0262], the “KB Cells Competable with xs folate” value [2] was “Yes”.

In the case of `CC[C@]1(O)C[C@H]2CN(CCc3c([nH]c4ccccc34)[C@@](C(=O)OC)(c3cc4c(cc3OC)N(C)[C@H]3[C@@](O)(C(=O)NNC(=O)OCCSSC[C@H](NC(=O)CCOCCOCCOCCOCCOCCOCCOCCOCCOCCOCCOCCOCCNC(=O)CC[C@H](NC(=O)c5ccc(NCc6cnc7nc(N)nc(O)c7n6)cc5)C(=O)O)C(=O)O)[C@H](O)[C@]5(CC)C=CCN6CC[C@]43[C@@H]65)C2)C1` [EC0409], the “Bile clearance (% ID)” value [1] is reported as 7.9 % ID and the “KB Cells Competable with xs folate” value [2] is reported as “Yes”.

For `CNC(=O)[C@H](Cc1cn(CCO[C@@H]2OC(C(=O)O)C(O)[C@H](O)C2O)nn1)NC(=O)CC[C@H](NC(=O)c1ccc(NCc2cnc3nc(N)nc(O)c3n2)cc1)C(=O)O` (stereo partly shown) [EC0423], the “Bile clearance (% ID)” value [1] was 3.9 % ID.

With `CC[C@]1(O)C[C@H]2CN(CCc3c([nH]c4ccccc34)[C@@](C(=O)OC)(c3cc4c(cc3OC)N(C)[C@H]3[C@@](O)(C(=O)NNC(=O)OCCSSC[C@H](NC(=O)[C@@H](NC(=O)[C@H](CC(=O)O)NC(=O)[C@@H](NC(=O)[C@H](CC(=O)O)NC(=O)[C@@H](NC(=O)[C@H](CC(=O)O)NC(=O)[C@@H](NC(=O)CC[C@H](NC(=O)c5ccc(NCc6cnc7nc(N)[nH]c(=O)c7n6)cc5)C(=O)O)[C@@H](O)[C@H](O)[C@H](O)CO)[C@@H](O)[C@H](O)[C@H](O)CO)[C@@H](O)[C@H](O)[C@H](O)CO)[C@@H](O)[C@H](O)[C@H](O)CO)C(=O)O)[C@H](O)[C@]5(CC)C=CCN6CC[C@]43[C@@H]65)C2)C1` [EC0434, Tetra-Saccharo-Tris-Asp-Folate Vinblastine Conjugate] ({Pteroyl-γGlu}-[Nle(3R-OH,4S-OH,5R-OH,6-OH)]D[Nle(3R-OH,4S-OH,5R-OH,6-OH)]D[Nle(3R-OH,4S-OH,5R-OH,6-OH)]D[Nle(3R-OH,4S-OH,5R-OH,6-OH)]C(X1)-OH) the “percent of total dose in the bile (total DAVLBH biliary excretion)” value ([1]; iv) was 2.8% and the “gross toxicity (percentage body weight change)” value [3] was “no gross toxicity was observed”.

In the case of `CCC(C)[C@H](NC(=O)[C@H]1CCCCN1C)C(=O)N(COC(=O)CC(C)C)[C@H](C[C@@H](OC(C)=O)c1nc(C(=O)N[C@@H](Cc2ccc(O)cc2)C[C@H](C)C(=O)NNC(=O)OCSSC[C@H](NC(=O)[C@H](CCC(=O)NC[C@H](O)[C@@H](O)[C@H](O)[C@H](O)CO)NC(=O)[C@H](CCC(=O)O)NC(=O)[C@H](CCC(=O)NC[C@H](O)[C@@H](O)[C@H](O)[C@H](O)CO)NC(=O)[C@H](CCC(=O)O)NC(=O)[C@H](CCC(=O)NC[C@H](O)[C@@H](O)[C@H](O)[C@H](O)CO)NC(=O)CC[C@H](NC(=O)c2ccc(NCc3cnc4nc(N)[nH]c(=O)c4n3)cc2)C(=O)O)C(=O)O)cs1)C(C)C` (stereo partly shown) [EC0543], the “KB Cells Competable with xs folate” value [2] is reported as “Yes”.

With `Nc1nc(N)c2nc(CNc3ccc(C(=O)N[C@@H](CCC(=O)OCCSSC[C@H](NC(=O)[C@H](CCC(=O)NC[C@H](O)[C@@H](O)[C@H](O)[C@H](O)CO)NC(=O)[C@H](CCC(=O)O)NC(=O)[C@H](CCC(=O)NC[C@H](O)[C@@H](O)[C@H](O)[C@H](O)CO)NC(=O)[C@H](CCC(=O)O)NC(=O)[C@H](CCC(=O)NC[C@H](O)[C@@H](O)[C@H](O)[C@H](O)CO)NC(=O)CC[C@H](NC(=O)c4ccc(NCc5cnc6nc(N)[nH]c(=O)c6n5)cc4)C(=O)O)C(=O)O)C(=O)O)cc3)cnc2n1` [EC0551] the IC50 (RAW264.7 cells) was 1 nM and the “RAW264.7 Cells Competable with xs folate” value (RAW264.7 cells) was “Yes”.

For `CO[C@H]1C[C@@H]2CC[C@@H](C)[C@@](O)(O2)C(=O)C(=O)N2CCCC[C@H]2C(=O)O[C@H]([C@H](C)C[C@@H]2CC[C@@H](O)[C@H](OC)C2)CC(=O)[C@H](C)/C=C(\C)[C@@H](OC(=O)OCCSSC[C@H](NC(=O)[C@H](CCC(=O)NC[C@H](O)[C@@H](O)[C@H](O)[C@H](O)CO)NC(=O)[C@H](CCC(=O)O)NC(=O)[C@H](CCC(=O)NC[C@H](O)[C@@H](O)[C@H](O)[C@H](O)CO)NC(=O)[C@H](CCC(=O)O)NC(=O)[C@H](CCC(=O)NC[C@H](O)[C@@H](O)[C@H](O)[C@H](O)CO)NC(=O)CC[C@H](NC(=O)c2ccc(NCc3cnc4nc(N)[nH]c(=O)c4n3)cc2)C(=O)O)C(=O)O)[C@@H](OC)C(=O)[C@H](C)C[C@H](C)/C=C/C=C/C=C/1C` [EC0552], the “RAW264.7 Cells Competable with xs folate” value (RAW264.7 cells) was “Yes”.

With `CC(=O)O[C@H]1C(=O)[C@@]2(C)[C@H]([C@H](OC(=O)c3ccccc3)[C@]3(O)C[C@H](OC(=O)[C@H](OC(=O)COc4ccc(C(=O)NNC(=O)OCCSSC[C@H](NC(=O)[C@H](CCC(=O)NC[C@H](O)[C@@H](O)[C@H](O)[C@H](O)CO)NC(=O)[C@H](CCC(=O)O)NC(=O)[C@H](CCC(=O)NC[C@H](O)[C@@H](O)[C@H](O)[C@H](O)CO)NC(=O)[C@H](CCC(=O)O)NC(=O)[C@H](CCC(=O)NC[C@H](O)[C@@H](O)[C@H](O)[C@H](O)CO)NC(=O)CC[C@H](NC(=O)c5ccc(NCc6cnc7nc(N)[nH]c(=O)c7n6)cc5)C(=O)O)C(=O)O)cc4)[C@@H](NC(=O)c4ccccc4)c4ccccc4)C(C)=C1C3(C)C)[C@]1(OC(C)=O)CO[C@@H]1C[C@@H]2O` [EC0561] the “KB Cells Competable with xs folate” value [2] was “Yes”.

For `CO[C@H]1C[C@@H]2CC[C@@H](C)[C@@](O)(O2)C(=O)C(=O)N2CCCC[C@H]2C(=O)O[C@H]([C@H](C)C[C@@H]2CC[C@@H](O)[C@H](OC)C2)CC(=O)[C@H](C)/C=C(\C)[C@@H](OC(=O)OCCSSCCC(=O)NC[C@@H]2NC(=O)[C@@H](NC(=O)[C@H](CCC(=O)O)NC(=O)[C@H](CCC(=O)NC[C@H](O)[C@@H](O)[C@H](O)[C@H](O)CO)NC(=O)[C@H](CCC(=O)O)NC(=O)[C@H](CCC(=O)NC[C@H](O)[C@@H](O)[C@H](O)[C@H](O)CO)NC(=O)CC[C@H](NC(=O)c3ccc(NCc4cnc5nc(N)[nH]c(=O)c5n4)cc3)C(=O)O)CCC(=O)NC[C@H](O)[C@@H](O)[C@H](O)[C@H]3COB(O3)[C@H](CC(C)C)NC(=O)[C@H](Cc3ccccc3)NC(=O)c3cnc(cn3)CSSC[C@@H](C(=O)O)NC2=O)[C@@H](OC)C(=O)[C@H](C)C[C@H](C)/C=C/C=C/C=C/1C` [EC0563], the “RAW264.7 Cells Competable with xs folate” value (RAW264.7 cells) was “Yes”.

With `CO[C@H]1C[C@@H]2CC[C@@H](C)[C@@](O)(O2)C(=O)C(=O)N2CCCC[C@H]2C(=O)O[C@H]([C@H](C)C[C@@H]2CC[C@@H](OCCOC(=O)OCCSSCCC(=O)NC[C@@H]3NC(=O)[C@@H](NC(=O)[C@H](CCC(=O)O)NC(=O)[C@H](CCC(=O)NC[C@H](O)[C@@H](O)[C@H](O)[C@H](O)CO)NC(=O)[C@H](CCC(=O)O)NC(=O)[C@H](CCC(=O)NC[C@H](O)[C@@H](O)[C@H](O)[C@H](O)CO)NC(=O)CC[C@H](NC(=O)c4ccc(NCc5cnc6nc(N)[nH]c(=O)c6n5)cc4)C(=O)O)CCC(=O)NC[C@H](O)[C@@H](O)[C@H](O)[C@H]4COB(O4)[C@H](CC(C)C)NC(=O)[C@H](Cc4ccccc4)NC(=O)c4cnc(cn4)CSSC[C@@H](C(=O)O)NC3=O)[C@H](OC)C2)CC(=O)[C@H](C)/C=C(\C)[C@@H](O)[C@@H](OC)C(=O)[C@H](C)C[C@H](C)/C=C/C=C/C=C/1C` [EC0582] the “RAW264.7 Cells Competable with xs folate” value (RAW264.7 cells) was “Yes”.
